Consider four compounds from paper PMC8476055, “Synthesis and Biological Activity of Triterpene–Coumarin Conjugates” (Journal of Natural Products, 2021).

Values joined by “and” are separate entries in the source; they are usually repeats but may differ in a detail not shown here. Equal entries are not always repeated.

The test system of series [1] is B16–F10 murine melanoma cells. Kind of series: MTT cell proliferation assay, B16–F10 cells. The class given is cell-based. Conditions: Mus musculus, 72 h treatment, untreated control = 100% viability, read-out: IC50, growth inhibition of B16–F10 cells. The protocol:
(§1) These studies were performed using a 3-(4,5-dimethylthiazol-2-yl)-2,5-diphenyltetrazolium bromide (MTT) assay, with increasing concentration levels of each compound (0–200 μg/mL). Cell viability was determined after treatment for 72 h, by absorption of a formazan dye.
(§2) […] ATTC HTB-38), Hep G2 human hepatocyte carcinoma cells (ECACC 85011430), nontumor human epithelial lung fibroblast cells HPF (ScienCell catalog (cat.) no. 3300), nontumor rat ileum cells IEC-18 (ECACC no. 88011801), and nontumor human embryo liver cells (ECACC 89121403) were cultured in DMEM medium supplemented with 2 mM glutamine, 10% heat-inactivated fetal bovine serum (FCS), 10.000 units/mL penicillin, and […]. These cells were incubated at 37 °C in an atmosphere of 5% CO2 and 95% humidity. The culture media were changed every 48 h, and the confluent cultures were separated with a trypsin solution (0.25% EDTA). Subconfluent monolayer cells were used in all experiments. All cell lines used were provided by the cell bank of the University of Granada (Spain).
(§3) The effect of the synthesized compounds on the viability of tumor cells was assessed using an MTT assay, based on the ability of living cells to cleave the tetrazolium ring, thus producing formazan, which absorbs at 570 nm. […] For an evaluation of the cytotoxic effects of these compounds, the cells were seeded in 96-well plates at an initial density of 5 × 10^3 B16–F10 cells, 6 × 10^3 HT29 cells, 15 × 10^3 Hep G2 cells, 8 × 10^3 HPF cells, 15 × 10^3 IEC-18 cells, and 11 × 10^3 WRL68 cells, per well. After incubation for 24 h, the cells were treated with the synthesized compounds in triplicate, at different concentrations (0–200 μg/mL), and incubated for 72 h. Thereafter, 100 μL of MTT solution (0.5 mg/mL) were added to each well. After 2 h of incubation, the cells were washed twice with phosphate buffered saline (PBS), and the formazan was resuspended in 100 μL of DMSO. Relative cell viability, with respect to untreated control cells, was measured by absorbance at 550 nm on an ELISA plate reader (Tecan Sunrise MR20-301, TECAN, Austria). […] These experiments were measured and compared to the control after 72 h of treatment.

Series [2] relates to HT29 human colon adenocarcinoma cells. Kind of series: MTT cell proliferation assay, HT29 cells. Conditions: HT-29, 72 h treatment, untreated control = 100% viability, read-out: IC50, growth inhibition of HT29 cells. The class given is cell-based. As to the method: as §1, §2, §3
Series [3] concerns Hep G2 human hepatocyte carcinoma cells. Kind of series: MTT cell proliferation assay, Hep G2 cells. The class given is cell-based. As to conditions: HepG2, 72 h treatment, untreated control = 100% viability, read-out: IC50, growth inhibition of Hep G2 cells. The protocol:
as §1, §2, §3

Series [4] has as its system HT29 cells. Kind of series: Annexin V-FITC/PI flow cytometry (apoptosis), HT29. The class given is cell-based, human. Conditions: HT29, 72 h at IC50 concentration, mean ± S.E.M. As to the method:
In consideration of the cytotoxic results of these triterpene conjugates with the three cell lines assayed, three MA–diamine–coumarin conjugates (1, 4, and 7) and the MA–coumarin conjugate 10 were selected for the following cytometry studies on the three cancer cell lines. Thus, the apoptotic determination assays were performed through double staining with Annexin V (An-V), conjugated fluorescein isothiocyanate (FITC), and propidium iodide (PI). […] The values of percentage of total apoptosis were expressed as means ± SEM of at least two duplicate experiments (Figure 1).
Apoptosis was assessed by flow cytometry using a FACScan (fluorescence-activated cell sorter) flow cytometer (Coulter Corporation, Hialeah, FL, USA). For these assays, 5 × 10^4 B16–F10, 6 × 10^4 HT29 cells, and 15 × 10^4 Hep G2 cells were placed in 24-well plates with 1.5 mL of medium and incubated for 24 h. Subsequently, the cells were treated with the selected compounds in triplicate for 72 h at their corresponding IC50 concentrations. The cells were collected and resuspended in a binding buffer (10 mM HEPES/NaOH, pH 7.4, 140 mM NaCl, 2.5 mM CaCl2). Annexin V-FITC conjugate (1 mg/mL) was then added and incubated for 15 min at room temperature in darkness. Just before the analysis by flow cytometry, cells were stained with 20 μL of 1 mg/mL PI solution. In each experiment, approximately 10 × 10^3 cells were analyzed, and the experiment was duplicated twice.

For series [5], the system named is B16–F10 cells. Kind of series: Mitochondrial-membrane potential (Rh123) flow cytometry, B16–F10. As to conditions: B16–F10, 72 h at IC50 concentration. The class given is cell-based, murine. As to the method:
(§4) The study of the loss of the mitochondrial-membrane potential (MMP) of tumor cells, when treated with drugs, can provide information on the activation mechanism of apoptosis. This activation can occur extrinsically when MMP is not altered, and intrinsically when a loss of this potential is caused by mitochondrial disruption. […] The values of percentage of cell population were expressed as means ± SEM of at least two experiments in duplicate. Changes in MMP were analyzed by monitoring cell fluorescence after staining with rhodamine 123 (Rh123).
(§5) The electrochemical gradient across the mitochondrial membrane was examined by analytical flow cytometry, using dihydrorhodamine (DHR), which in contact with living cells, oxidized to form highly fluorescent rhodamine 123 (Rh123). The fluorescence emitted can be monitored by fluorescence spectroscopy using excitation and emission wavelengths of 500 and 536 nm, respectively. […] Following treatment, the culture medium was renewed with fresh medium by adding 0.5 mL of DHR, for a final concentration of […]. Cells were incubated for 1 h at 37 °C in an atmosphere of 5% CO2 and 95% humidity and subsequently washed and resuspended in PBS. The fluorescence intensity was measured using a FACScan flow cytometer (fluorescence-activated cell sorter). The experiments were performed three times with two replicates per assay.

In series [6] the test system is HT29 cells. Kind of series: Mitochondrial-membrane potential (Rh123) flow cytometry, HT29. The series is classed as cell-based, human. Conditions: HT29, 72 h at IC50 concentration. The protocol: as §4, §5

`CC1(C)CC[C@]2(C(=O)O)CC[C@]3(C)C(=CC[C@@H]4[C@@]5(C)C[C@@H](OC(=O)c6cc7ccccc7oc6=O)[C@H](OC(=O)c6cc7ccccc7oc6=O)C(C)(C)[C@@H]5CC[C@]43C)[C@@H]2C1` [Compound 10]: the IC50 in series [1] came to 0.6 µM. For the same compound, the IC50 in series [2] was found to be 1.1 ± 0.1 µM. In series [3], the half-inhibitory concentration (IC50) was 0.9 µM. In addition, in series [4], the “Early Apoptosis” value came to 23.8 ± 4.2%; the “Late Apoptosis” value is recorded as 34.1 ± 4.9%; the Necrosis worked out at 6.5 ± 0.0%; the “Total Apoptosis” value is 57.9 ± 1.6% and 58%. For the same compound, the “Viable Cells” value in series [4] turned out to be 35.7 ± 2.3%. The “Rh123 staining (mitochondrial-membrane potential)” value (“Rh123 staining” below) in series [5] is given as “positive Rh123 staining”. Also, in series [6], the “Rh123 staining” value was “positive Rh123 staining”.
As to `CC1(C)CC[C@]2(C(=O)NCCCNC(=O)c3cc4ccccc4oc3=O)CC[C@]3(C)C(=CC[C@@H]4[C@@]5(C)C[C@@H](O)[C@H](O)C(C)(C)[C@@H]5CC[C@]43C)[C@@H]2C1` [Compound 1, 2α,3β-Dihydroxy-N-(3′-(2″-oxo-2″H-chromene-3″-carboxamido)propyl)olean-12-en-28-amide], the IC50 in series [1] is above 10 µM. Besides, the half-maximal inhibitory concentration (IC50) in series [2] is above 10 µM. Besides, the 50% inhibitory concentration (IC50) in series [3] is above 10 µM. In series [4], the “Early Apoptosis” value is reported as 10.8 ± 0.6%, the “Late Apoptosis” value was found to be 29.2 ± 0.5%, the Necrosis is 3.7 ± 0.9% and the “Total Apoptosis” value amounted to 40.0 ± 0.5%. Also, the “Viable Cells” value in series [4] amounted to 56.3 ± 1.3%. The “Rh123 staining” value in series [5] was “positive Rh123 staining”. Also, the “Rh123 staining” value in series [6] is recorded as “positive Rh123 staining”.
On to `CC1(C)CC[C@]2(C(=O)NCCCNC(=O)/C=C/c3ccc(O)cc3)CC[C@]3(C)C(=CC[C@@H]4[C@@]5(C)C[C@@H](O)[C@H](O)C(C)(C)[C@@H]5CC[C@]43C)[C@@H]2C1` [Compound 7, 2α,3β-Dihydroxy-N-(3′-((E)-3″-(4‴-hydroxyphenyl)acrylamido)propyl)olean-12-en-28-amide], for which, in series [1], the IC50 came out at 10.4 ± 0.2 µM. For the same compound, the IC50 in series [2] came to 10.9 ± 0.5 µM. Also, the IC50 in series [3] was determined as 8.8 ± 0.4 µM. Besides, in series [4], the “Early Apoptosis” value is given as 16.2 ± 3.6%, the “Late Apoptosis” value came to 29.4 ± 1.6%, the Necrosis came to 1.5 ± 0.4% and the “Total Apoptosis” value is 45.6 ± 2.0%. Further, the “Viable Cells” value in series [4] is given as 52.9 ± 2.0%. The “Rh123 staining” value in series [5] is “positive Rh123 staining”. The “Rh123 staining” value in series [6] was “positive Rh123 staining”.
Take `CC1(C)CC[C@]2(C(=O)NCCCNC(=O)Cc3cc(=O)oc4cc(O)ccc34)CC[C@]3(C)C(=CC[C@@H]4[C@@]5(C)C[C@@H](O)[C@H](O)C(C)(C)[C@@H]5CC[C@]43C)[C@@H]2C1` [Compound 4, 2α,3β-Dihydroxy-N-(3′-(2″-(7‴-hydroxy-2‴-oxo-2‴H-chromen-4‴-yl)acetamido)propyl)olean-12-en-28-amide]: the IC50 in series [1] is above 10 µM. Besides, in series [2], the IC50 is above 10 µM. Also, the concentration for half-maximal inhibition (IC50) in series [3] is above 10 µM. In addition, in series [4], the “Early Apoptosis” value was determined as 32.0 ± 2.3%, the “Late Apoptosis” value worked out at 20.5 ± 3.0%, the Necrosis was determined as 6.2 ± 0.9% and the “Total Apoptosis” value is listed as 52.4 ± 3.0%. Besides, the “Viable Cells” value in series [4] stood at 41.4 ± 3.8%. The “Rh123 staining” value in series [5] is “positive Rh123 staining”. Besides, the “Rh123 staining” value in series [6] is “positive Rh123 staining”.
